Laboratory results published in patent US12029771B2, “Neem for treatment of RLS” (priority 2018, dated 2024).

Tested on: symptoms of restless legs syndrome (RLS)
Assay: Treatment of RLS patient, Case No. 1
Type: in vivo, human
Settings: L-Dopa treatment before neem

N[C@@H](Cc1ccc(O)c(O)c1)C(=O)O [L-Dopa]
symptoms of RLS under exposure to L-Dopa: did not completely cease
